In PubChem BioAssay AID206 (DTP/NCI, 2004):
Where “and” joins values, the source holds several entries; their conditions need not be identical. Equal values may be shown once. Results filed as inconclusive are left out.

Test system: nude mice, HT29 intrarenal xenograft, tumor weight T/C
Experiment: NCI In Vivo Anticancer Drug Screen. Data for tumor model HT29;CX-1 Human Adenocarcinoma (MER+) (intrarenal inoculation) in NU/NU Swiss (nude) mice
Details: endpoint: mean tumor weight change, higher = larger tumour
How it was run: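 T/C = treated-group value ÷ vehicle-group value, using tumor size or survival.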

[1] = dose: 1200.0 mg/kg/injection, schedule: Q04DX004 (sc), vehicle: Klucel (hydroxypropylcellulose) (HPC)
[2] = dose: 50.0 mg/kg/injection, schedule: Q01DX010 (sc), vehicle: saline

`NC(=O)CC(N)C(=O)O` (stereo not given) was tested, and the T/C (dose: 400.0 mg/kg/injection, schedule: Q04DX004 (sc), vehicle: saline) was 151 % of control, the T/C (dose: 800.0 mg/kg/injection, schedule: Q04DX004 (sc), vehicle: saline) was 119 % of control and the T/C (dose: 3200.0 mg/kg/injection, schedule: Q04DX004 (sc), vehicle: saline) was 90 % of control.

In the case of `C[C@]12CCC(=O)C=C1CC[C@@H]1[C@@H]2C(=O)C[C@@]2(C)[C@H]1CC[C@]2(O)C(=O)CO`, the T/C (dose: 300.0 mg/kg/injection, schedule: Q04DX004 (sc), vehicle: Klucel (hydroxypropylcellulose) (HPC)) is reported as 55 % of control, the T/C (dose: 600.0 mg/kg/injection, schedule: Q04DX004 (sc), vehicle: Klucel (hydroxypropylcellulose) (HPC)) is reported as 42 % of control and the T/C [1] is reported as 42 % of control.

With `Cc1cc(C)c(-c2cc(O)c(C)cc2O)c(C)c1` the T/C [1] was 68 % of control and the T/C (dose: 2400.0 mg/kg/injection, schedule: Q04DX004 (sc), vehicle: Klucel (hydroxypropylcellulose) (HPC)) was 71 % of control.

In the case of `CC(C)[NH-].CC(C)[NH-].O.O.[Cl][Pt+2][Cl]`, the T/C (dose: 6.25 mg/kg/injection, schedule: Q01DX010 (sc), vehicle: dextrose) is reported as 77 % of control and 79 % of control and the T/C (dose: 12.5 mg/kg/injection, schedule: Q01DX010 (sc), vehicle: dextrose) is reported as 7 % of control and 23 % of control.

In the case of `CCCCN(CCCC)C(Cl)=Nc1ccccc1`, the T/C (dose: 100.0 mg/kg/injection, schedule: Q04DX004 (sc), vehicle: other) is reported as 103 % of control, the T/C (dose: 200.0 mg/kg/injection, schedule: Q04DX004 (sc), vehicle: other) is reported as 100 % of control and the T/C (dose: 400.0 mg/kg/injection, schedule: Q04DX004 (sc), vehicle: other) is reported as 96 % of control. For the same compound, the T/C (dose: 800.0 mg/kg/injection, schedule: Q04DX004 (sc), vehicle: other) was 91 % of control.

`O=NN(CCCl)C(=O)NCCO` was tested, and the T/C (dose: 12.5 mg/kg/injection, schedule: Q04DX004 (sc), vehicle: water) was 81 % of control.

In the case of `CC(/C=N/N=C(N)N)=N\N=C(N)N`, the T/C (dose: 12.5 mg/kg/injection, schedule: Q01DX010 (sc), vehicle: water) is reported as 67 % of control.

In the case of `CCCCCCCC(=O)N/N=C(\CO)[C@]1(O)Cc2c(O)c3c(c(O)c2[C@@H](OC2CC(N)C(O)C(C)O2)C1)C(=O)c1c(OC)cccc1C3=O` (stereo not given in full), the T/C (dose: 31.25 mg/kg/injection, schedule: Q04DX004 (sc), vehicle: water) is reported as 2 % of control, the T/C (dose: 32.5 mg/kg/injection, schedule: Q04DX004 (sc), vehicle: water) is reported as 102 % of control and the T/C (dose: 62.5 mg/kg/injection, schedule: Q04DX004 (sc), vehicle: water) is reported as 51 % of control. The T/C (dose: 65.0 mg/kg/injection, schedule: Q04DX004 (sc), vehicle: water) was 34 % of control, the T/C (dose: 130.0 mg/kg/injection, schedule: Q04DX004 (sc), vehicle: water) was 46 % of control and the T/C (dose: 250.0 mg/kg/injection, schedule: Q04DX004 (sc), vehicle: water) was 10 % of control. For the same compound, the T/C (dose: 260.0 mg/kg/injection, schedule: Q04DX004 (sc), vehicle: water) was 19 % of control.

`O=C1c2cccc3cc([N+](=O)[O-])cc(c23)C(=O)N1CCN1CCCC1` was tested, and the T/C (dose: 18.0 mg/kg/injection, schedule: Q04DX004 (sc), vehicle: saline with Tween-80) was 110 % of control and the T/C (dose: 36.0 mg/kg/injection, schedule: Q04DX004 (sc), vehicle: saline with Tween-80) was 115 % of control.

In the case of `OCC1OC(n2cnc3c(=S)nc[nH]c32)C(O)C1O` (stereo not given), the T/C (dose: 25.0 mg/kg/injection, schedule: Q01DX010 (sc), vehicle: saline) is reported as 54 % of control, the T/C [2] is reported as 77 % of control and the T/C (dose: 100.0 mg/kg/injection, schedule: Q01DX010 (sc), vehicle: saline) is reported as 108 % of control.

In the case of `CCN(CC)CCOCCO`, the T/C (dose: 150.0 mg/kg/injection, schedule: Q04DX004 (sc), vehicle: saline) is reported as 113 % of control and the T/C (dose: 300.0 mg/kg/injection, schedule: Q04DX004 (sc), vehicle: saline) is reported as 89 % of control.

In the case of `CC(C)[C@]12O[C@H]1[C@@H]1O[C@]13[C@]1(O[C@H]1C[C@H]1C4=C(C(=O)OC4)[C@@H](O)C[C@@]13C)[C@@H]2O`, the T/C (dose: 0.1 mg/kg/injection, schedule: Q01DX010 (sc), vehicle: saline + alcohol) is reported as 63 % of control and the T/C (dose: 0.2 mg/kg/injection, schedule: Q01DX010 (sc), vehicle: saline + alcohol) is reported as 77 % of control.

With `CC(=O)Oc1ccccc1O` the T/C (dose: 75.0 mg/kg/injection, schedule: Q04DX004 (sc), vehicle: saline + Tween-80 + alcohol) was 79 % of control, the T/C (dose: 150.0 mg/kg/injection, schedule: Q04DX004 (sc), vehicle: saline + Tween-80 + alcohol) was 109 % of control and the T/C (dose: 300.0 mg/kg/injection, schedule: Q04DX004 (sc), vehicle: saline + Tween-80 + alcohol) was 119 % of control.

`C[CH2][Ge]1([CH2]C)[CH2]CC2(CCN(CCCN(C)C)C2)C[CH2]1` was tested, and the T/C [2] was 99 % of control.

In the case of `COC(=O)C[C@](O)(CCCC(C)(C)O)C(=O)O[C@@H]1C(OC)=C[C@]23CCCN2CCc2cc4c(cc2[C@H]13)OCO4`, the T/C (dose: 0.5 mg/kg/injection, schedule: Q01DX010 (sc), vehicle: saline) is reported as 41 % of control.

`Cc1ccc(N)c(N)c1` was tested, and the T/C (dose: 200.0 mg/kg/injection, schedule: Q04DX004 (sc), vehicle: saline with Tween-80) was 151 % of control, the T/C (dose: 400.0 mg/kg/injection, schedule: Q04DX004 (sc), vehicle: saline with Tween-80) was 85 % of control and the T/C (dose: 800.0 mg/kg/injection, schedule: Q04DX004 (sc), vehicle: saline with Tween-80) was 124 % of control.
